In brackets after ≈: the same amount, converted by molar mass.
Columns and labels:
A549 = experiment: Cytotoxicity against human A549 cells after 1 hr; type: functional, cell-based; conditions: A549, 1 h
SF-295 = experiment: Cytotoxicity against human SF295 cells after 1 hr; type: functional, cell-based; conditions: SF-295, 1 h
K562 = experiment: Cytotoxicity against human K562 cells; type: functional; conditions: for TGI: read-out: pTGI (converted)
EKVX = experiment: Cytotoxicity against human EKVX cells; type: functional; conditions: for TGI: read-out: pTGI (converted)
HCT-116 = experiment: Cytotoxicity against human HCT116 cells; type: functional; conditions: for TGI: read-out: pTGI (converted)
HT-29 = experiment: Cytotoxicity against human HT-29 cells; type: functional; conditions: for TGI: read-out: pTGI (converted)
KM12 = experiment: Cytotoxicity against human KM12 cells; type: functional; conditions: for TGI: read-out: pTGI (converted)
SF-268 = experiment: Cytotoxicity against human SF268 cells; type: functional; conditions: for TGI: read-out: pTGI (converted)
SF-539 = experiment: Cytotoxicity against human SF539 cells; type: functional; conditions: for TGI: read-out: pTGI (converted)
Malme-3M = experiment: Cytotoxicity against human MALME-3M cells; type: functional; conditions: for TGI: read-out: pTGI (converted)
SK-MEL-28 = experiment: Cytotoxicity against human SK-MEL-28 cells; type: functional; conditions: for TGI: read-out: pTGI (converted)
OVCAR-5 = experiment: Cytotoxicity against human OVCAR5 cells; type: functional; conditions: for TGI: read-out: pTGI (converted)
CAKI-1 = experiment: Cytotoxicity against human Caki1 cells; type: functional; conditions: for TGI: read-out: pTGI (converted)
RXF 393 = experiment: Cytotoxicity against human RXF393 cells; type: functional; conditions: for TGI: read-out: pTGI (converted)
TK-10 = experiment: Cytotoxicity against human TK10 cells; type: functional; conditions: for TGI: read-out: pTGI (converted)
UO-31 = experiment: Cytotoxicity against human UO31 cells; type: functional; conditions: for TGI: read-out: pTGI (converted)
DU-145 = experiment: Cytotoxicity against human DU145 cells; type: functional; conditions: for CC50: read-out: pLC50 (the source's name) (converted); for TGI: read-out: pTGI (converted)
MCF7 = experiment: Cytotoxicity against human doxorubicin-resistant MCF7 cells; type: functional; conditions: for CC50: read-out: pLC50 (the source's name) (converted); for TGI: read-out: pTGI (converted)
MDA-MB-231 = experiment: Cytotoxicity against human MDA-MB-231 cells; type: functional; conditions: for CC50: read-out: pLC50 (the source's name) (converted); for TGI: read-out: pTGI (converted)
MDA-N = experiment: Cytotoxicity against human MDA-N cells; type: functional; conditions: for CC50: read-out: pLC50 (the source's name) (converted); for TGI: read-out: pTGI (converted)

CC(C)=CCC/C(C)=C/Cc1c(O)cc(/C=C/c2cc(O)c3c(c2)C[C@@H]2C(C)(C)[C@H](O)[C@H](O)C[C@@]2(C)O3)cc1O [SCHWEINFURTHIN A]
IC50 (A549): 43 µg/mL (≈ 78.4 µM)
IC50 (SF-295): 47 µg/mL (≈ 85.7 µM)
GI50 (K562): 64.6 nM
LC50 (K562): 72.4 µM
TGI (K562): 14.1 µM
GI50 (EKVX): 158 nM
LC50 (EKVX): 43.7 µM
TGI (EKVX): 15.1 µM
GI50 (HCT-116): 52.5 nM
LC50 (HCT-116): 40.7 µM
TGI (HCT-116): 14.1 µM
GI50 (HT-29): 309 nM
LC50 (HT-29): 5.5 µM
TGI (HT-29): 2400 nM
GI50 (KM12): 1510 nM
LC50 (KM12): 30.2 µM
TGI (KM12): 14.1 µM
GI50 (SF-268): 2.4 µM
LC50 (SF-268): 74.1 µM
TGI (SF-268): 20.9 µM
GI50 (SF-539): 10 nM
LC50 (SF-539): 8.13 µM
TGI (SF-539): 1700 nM
GI50 (Malme-3M): 4.27 µM
LC50 (Malme-3M): 53.7 µM
TGI (Malme-3M): 20 µM
GI50 (SK-MEL-28): 4570 nM
LC50 (SK-MEL-28): 60.3 µM
TGI (SK-MEL-28): 24 µM
GI50 (OVCAR-5): 6.46 µM
LC50 (concentration killing 50% of cells) (OVCAR-5): 45.7 µM
TGI (OVCAR-5): 20 µM
GI50 (CAKI-1): 129 nM
LC50 (CAKI-1): 56.2 µM
TGI (CAKI-1): 19.1 µM
GI50 (RXF 393): 10 nM
LC50 (RXF 393): 55 µM
TGI (RXF 393): 2090 nM
GI50 (TK-10): 2.57 µM
LC50 (TK-10): 41.7 µM
TGI (TK-10): 17 µM
GI50 (UO-31): 10 nM
LC50 (UO-31): 3.63 µM
TGI (UO-31): 209 nM
GI50 (DU-145): 1200 nM
CC50 (DU-145): 53.7 µM
TGI (DU-145): 15.1 µM
GI50 (MCF7): 3.8 µM
CC50 (MCF7): 41.7 µM
TGI (MCF7): 12.9 µM
GI50 (MDA-MB-231): 4.17 µM
CC50 (MDA-MB-231): 70.8 µM
TGI (MDA-MB-231): 25.1 µM
GI50 (MDA-N): 2.82 µM
CC50 (MDA-N): 61.7 µM
TGI (MDA-N): 25.7 µM

COc1cc(/C=C/c2cc(O)c(C/C=C(\C)CCC=C(C)C)c(O)c2)cc2c1O[C@]1(C)C[C@@H](O)[C@@H](O)C(C)(C)[C@H]1C2 [SCHWEINFURTHIN B]
IC50 (A549): > 100 µg/mL
IC50 (SF-295): > 100 µg/mL
GI50 (K562): 347 nM
LC50 (K562): 36.3 µM
TGI (K562): 6.17 µM
GI50 (EKVX): 933 nM
LC50 (EKVX): 38 µM
TGI (EKVX): 14.1 µM
GI50 (HCT-116): 575 nM
LC50 (HCT-116): 22.9 µM
TGI (HCT-116): 6.61 µM
GI50 (HT-29): 372 nM
LC50 (HT-29): 5.5 µM
TGI (HT-29): 2090 nM
GI50 (KM12): 1290 nM
LC50 (KM12): 18.2 µM
TGI (KM12): 9.33 µM
GI50 (SF-268): 4.37 µM
LC50 (SF-268): 75.9 µM
TGI (SF-268): 24 µM
GI50 (SF-539): 151 nM
LC50 (SF-539): 14.1 µM
TGI (SF-539): 2000 nM
GI50 (Malme-3M): 8.71 µM
LC50 (Malme-3M): 69.2 µM
TGI (Malme-3M): 26.9 µM
GI50 (SK-MEL-28): 1100 nM
LC50 (SK-MEL-28): 52.5 µM
TGI (SK-MEL-28): 12.9 µM
GI50 (OVCAR-5): 7.08 µM
LC50 (concentration killing 50% of cells) (OVCAR-5): 44.7 µM
TGI (OVCAR-5): 19.1 µM
GI50 (CAKI-1): 1910 nM
LC50 (CAKI-1): 75.9 µM
TGI (CAKI-1): 28.8 µM
GI50 (RXF 393): 10 nM
LC50 (RXF 393): 7.08 µM
TGI (RXF 393): 269 nM
GI50 (TK-10): 6.17 µM
LC50 (TK-10): 52.5 µM
TGI (TK-10): 21.9 µM
GI50 (UO-31): 75.9 nM
LC50 (UO-31): 5.25 µM
TGI (UO-31): 912 nM
GI50 (DU-145): 3390 nM
CC50 (DU-145): 50.1 µM
TGI (DU-145): 19.1 µM
GI50 (MCF7): 6.92 µM
CC50 (MCF7): 75.9 µM
TGI (MCF7): 30.2 µM
GI50 (MDA-MB-231): 6.46 µM
CC50 (MDA-MB-231): 81.3 µM
TGI (MDA-MB-231): 38 µM
GI50 (MDA-N): 3.39 µM
CC50 (MDA-N): 28.8 µM
TGI (MDA-N): 15.1 µM

From ChEMBL document CHEMBL1151324, “Cytotoxic geranyl stilbenes from Macaranga schweinfurthii” (J Nat Prod, 1998)
